Measured values as given in patent US20040161391A1, “Ascorbic acid compounds as bleaching agents” (L'OREAL, priority 2002, published 2004).
“Also recorded” adds a separate entry of the source.

Key:
melanogenesis = experiment: Activity on melanogenesis (ratio of thiouracil to leucine incorporation); assay type: cell-based; conditions: for IC50: read-out: IC50 (concentration for which a 50% inhibition of melanogenesis is observed); for Inhibitory activity on melanogenesis: relative to 100% of control, test concentration: T1 312 μM, T2 327 μM, A 230 μM, B 262 μM
Method: The melanogenesis-modulating effect of the compounds of formula (I) was measured according to the method described in patent application EP-0 993 826 filed by the Applicant, and also in the article by R. Schmidt, P. Krien and M. Regnier, Anal. Biochem., 235(2), 113-18, (1996).
(§1) The following were determined for each test compound:
the inhibitory activity on melanin synthesis, by estimating the ratio of the incorporation of thiouracil to the incorporation of leucine, relative to 100% of the control (the control corresponds to the test performed without test compound),
the IC50 value, which corresponds to the micromolar (μM) concentration for which a 50% inhibition of melanogenesis is observed.

[1] = Cytotoxicity by estimating the incorporation of leucine; assay type: cell-based
Method: as §1
the cytotoxicity, by estimating the incorporation of leucine, […]

[2] = test system: melanocytes in co-culture; experiment: Activity on the dendricity of melanocytes (melanocyte/keratinocyte co-culture, NKlbeteb labelling); assay type: cell-based; conditions: 7 days treatment, 100 μg per ml; test concentration: T1 312 μM, T2 327 μM, A 230 μM, B 262 μM
Method: The aim of this test is to show the effect of the compounds used according to the invention on the morphological modulation of melanocytes.
The melanocytes are treated immediately on inoculation with the compounds according to the invention for 7 days. The compounds are used at a dose of 100 μg per ml.
The melanocytes are labelled using the antibody NKlbeteb (green coloration), which recognizes melanosomes at any stage of maturation. The nucleus of all the cells, melanocytes and keratinocytes, is stained using propidium iodide (red coloration).
In the absence of the compounds according to the invention, the melanocytes in co-culture are highly dendritic. The pigment is visibly transferred to the neighbouring keratinocytes.

tyrosinase = target: T1, tyrosinase (Homo sapiens, UniProt P14679); conditions: J. Soc. Cosmet. Chem., 42, 1991; cited from earlier work
T1 sequence (P14679 19-529): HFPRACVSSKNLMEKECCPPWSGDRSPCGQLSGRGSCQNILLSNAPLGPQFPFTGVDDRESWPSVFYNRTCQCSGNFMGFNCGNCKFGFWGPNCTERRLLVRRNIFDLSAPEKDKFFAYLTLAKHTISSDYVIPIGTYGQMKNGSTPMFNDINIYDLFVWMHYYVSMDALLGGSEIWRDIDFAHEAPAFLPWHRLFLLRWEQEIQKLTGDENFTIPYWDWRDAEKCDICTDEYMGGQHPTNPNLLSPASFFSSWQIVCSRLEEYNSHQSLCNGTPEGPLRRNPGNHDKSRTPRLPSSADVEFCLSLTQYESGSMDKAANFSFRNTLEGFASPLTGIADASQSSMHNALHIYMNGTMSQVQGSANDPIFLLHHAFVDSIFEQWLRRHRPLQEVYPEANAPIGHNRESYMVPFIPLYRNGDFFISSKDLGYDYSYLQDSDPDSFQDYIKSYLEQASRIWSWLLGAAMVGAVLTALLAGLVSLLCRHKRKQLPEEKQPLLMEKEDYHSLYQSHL

melanocytes = conditions: Pigment. Cell. Res., 13, 2000; cited from earlier work

Molecule | IC50 (melanogenesis) [µM] | Cytotoxicity [1] | Dendricity [2] | Transfer of pigmentation [2] | IC50 (concentration for which a 50% inhibition of melanogenesis is observed) (melanogenesis) | Inhibitory activity on melanogenesis (melanogenesis) | Effect on tyrosinase (tyrosinase) | Dendricity of the melanocytes (melanocytes) | Melanin transfer (melanocytes)
COc1cc(/C=C/C(=O)OC2=C(O)C(C3COC(C)(C)O3)OC2=O)ccc1OC(C)=O (centres unmarked) [Compound A, 5-(2,2-dimethyl[1,3]dioxolan-4-yl)-4-hydroxy-2-oxo-2,5-dihydro-3-furanyl 3-[(4-acetoxy-3-methoxy)phenyl]acrylate] | 200 | No | Bipolar | reduced; also recorded: Little | – | – | – | – | –
COc1cc(/C=C/C(=O)OC2=C(O)C(C3COC(C)(C)O3)OC2=O)ccc1O (centres unmarked) [Compound B, 5-(2,2-dimethyl[1,3]dioxolan-4-yl)-4-hydroxy-2-oxo-2,5-dihydro-3-furanyl 3-[(4-hydroxy-3-methoxy)phenyl]acrylate] | 500 | No | Bipolar | reduced; also recorded: Little | – | – | – | – | –
O=C(/C=C/c1ccccc1)OC1=C(O)[C@@H]([C@@H](O)CO)OC1=O [Compound T2, ascorbyl 2-cinnamate] | – | No | Multipolar | Large | No effect | No effect | – | – | –
O=C1O[C@H]([C@@H](O)CO)C(O)=C1O [ascorbic acid] | – | – | – | – | – | – | inhibitory effect | – | –
O=C1O[C@H]([C@@H](O)CO)C([O-])=C1OP(=O)([O-])[O-].O=C1O[C@H]([C@@H](O)CO)C([O-])=C1OP(=O)([O-])[O-].[Mg+2].[Mg+2].[Mg+2] [magnesium ascorbyl phosphate] | – | – | – | – | – | – | – | reduce the dendricity | effect on melanin transfer
methyl 2,3-bis-acetate of ascorbic acid [Compound T1] | – | – | Multipolar | Large | No effect | No effect | – | – | –
